Measured values reported in ChEMBL document CHEMBL1155543 (Bioorg Med Chem Lett, 2010).

Assays:
[1] = molecular target: Carbonic anhydrase 3 (Homo sapiens, UniProt P07451)
[2] = molecular target: Carbonic anhydrase 5A, mitochondrial (Homo sapiens, UniProt P35218)
[3] = molecular target: Carbonic anhydrase 13 (Mus musculus, UniProt Q9D6N1)
[4] = molecular target: Carbonic anhydrase 5B, mitochondrial (Homo sapiens, UniProt Q9Y2D0)
[5] = molecular target: Carbonic anhydrase 7 (Homo sapiens, UniProt P43166)
[6] = molecular target: T1, Carbonic anhydrase 15 (Mus musculus, UniProt Q99N23)
T1 sequence (Q99N23 whole entry): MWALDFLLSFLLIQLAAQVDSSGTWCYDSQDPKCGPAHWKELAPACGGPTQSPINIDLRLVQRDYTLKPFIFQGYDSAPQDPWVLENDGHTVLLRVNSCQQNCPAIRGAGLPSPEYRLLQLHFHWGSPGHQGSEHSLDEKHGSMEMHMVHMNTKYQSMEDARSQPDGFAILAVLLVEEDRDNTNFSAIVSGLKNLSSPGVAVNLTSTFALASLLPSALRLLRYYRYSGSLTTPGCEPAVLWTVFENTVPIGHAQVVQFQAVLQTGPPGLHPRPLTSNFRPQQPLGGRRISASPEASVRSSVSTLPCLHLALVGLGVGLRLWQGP

[7] = molecular target: Carbonic anhydrase 14 (Homo sapiens, UniProt Q9ULX7)
[8] = molecular target: Carbonic anhydrase 6 (Homo sapiens, UniProt P23280)
[9] = molecular target: Carbonic anhydrase 4 (Homo sapiens, UniProt P22748)
[10] = molecular target: Carbonic anhydrase 12 (Homo sapiens, UniProt O43570)
Chain of Carbonic anhydrase 12 (O43570 whole entry): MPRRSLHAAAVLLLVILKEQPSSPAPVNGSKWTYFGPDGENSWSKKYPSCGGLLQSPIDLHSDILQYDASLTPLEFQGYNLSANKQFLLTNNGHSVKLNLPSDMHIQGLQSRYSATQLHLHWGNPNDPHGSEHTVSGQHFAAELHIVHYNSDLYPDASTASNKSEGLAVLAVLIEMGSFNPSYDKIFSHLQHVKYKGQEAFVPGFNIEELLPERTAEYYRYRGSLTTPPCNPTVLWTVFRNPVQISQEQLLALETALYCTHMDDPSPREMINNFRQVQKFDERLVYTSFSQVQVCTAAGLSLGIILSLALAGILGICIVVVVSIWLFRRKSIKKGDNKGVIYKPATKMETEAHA

Chain of Carbonic anhydrase 3 (P07451 whole entry): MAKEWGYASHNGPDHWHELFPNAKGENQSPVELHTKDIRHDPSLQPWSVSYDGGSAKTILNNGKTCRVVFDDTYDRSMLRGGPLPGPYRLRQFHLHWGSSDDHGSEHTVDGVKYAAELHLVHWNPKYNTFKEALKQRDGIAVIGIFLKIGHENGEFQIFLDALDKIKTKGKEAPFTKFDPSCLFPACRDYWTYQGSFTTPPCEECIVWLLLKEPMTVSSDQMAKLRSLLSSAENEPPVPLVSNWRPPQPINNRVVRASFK
Chain of Carbonic anhydrase 13 (Q9D6N1 whole entry): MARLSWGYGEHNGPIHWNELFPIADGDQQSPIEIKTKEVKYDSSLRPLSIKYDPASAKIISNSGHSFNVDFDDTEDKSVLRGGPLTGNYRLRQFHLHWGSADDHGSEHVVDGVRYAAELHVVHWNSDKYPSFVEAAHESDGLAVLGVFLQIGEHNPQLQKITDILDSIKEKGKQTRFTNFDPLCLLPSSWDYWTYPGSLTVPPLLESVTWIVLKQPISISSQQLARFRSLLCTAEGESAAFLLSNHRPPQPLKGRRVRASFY
Chain of Carbonic anhydrase 5A, mitochondrial (P35218 whole entry): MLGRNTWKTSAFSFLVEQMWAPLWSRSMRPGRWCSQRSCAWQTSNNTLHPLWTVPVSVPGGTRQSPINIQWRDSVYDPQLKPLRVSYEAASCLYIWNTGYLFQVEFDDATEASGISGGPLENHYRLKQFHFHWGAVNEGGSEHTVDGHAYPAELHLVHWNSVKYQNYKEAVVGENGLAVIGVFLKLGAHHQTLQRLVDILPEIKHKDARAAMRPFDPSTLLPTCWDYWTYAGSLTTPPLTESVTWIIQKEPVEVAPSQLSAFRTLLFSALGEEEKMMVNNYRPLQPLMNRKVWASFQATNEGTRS
Chain of Carbonic anhydrase 5B, mitochondrial (Q9Y2D0 whole entry): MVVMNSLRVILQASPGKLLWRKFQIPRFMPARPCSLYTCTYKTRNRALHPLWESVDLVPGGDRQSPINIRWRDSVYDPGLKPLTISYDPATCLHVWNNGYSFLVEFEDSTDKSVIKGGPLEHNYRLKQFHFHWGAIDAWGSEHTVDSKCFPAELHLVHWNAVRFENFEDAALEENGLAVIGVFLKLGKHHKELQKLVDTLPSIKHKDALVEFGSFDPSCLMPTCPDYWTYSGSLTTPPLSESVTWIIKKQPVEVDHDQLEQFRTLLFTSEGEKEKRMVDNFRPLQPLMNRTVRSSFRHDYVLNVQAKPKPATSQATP
Chain of Carbonic anhydrase 7 (P43166 whole entry): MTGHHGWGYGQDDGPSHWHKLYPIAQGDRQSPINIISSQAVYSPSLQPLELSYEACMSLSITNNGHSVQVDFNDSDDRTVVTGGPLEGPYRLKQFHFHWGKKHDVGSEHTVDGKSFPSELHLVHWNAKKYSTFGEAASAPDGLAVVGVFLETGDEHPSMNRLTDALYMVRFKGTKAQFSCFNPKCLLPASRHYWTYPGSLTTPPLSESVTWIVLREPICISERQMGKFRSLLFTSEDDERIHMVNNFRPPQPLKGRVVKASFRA
Chain of Carbonic anhydrase 14 (Q9ULX7 whole entry): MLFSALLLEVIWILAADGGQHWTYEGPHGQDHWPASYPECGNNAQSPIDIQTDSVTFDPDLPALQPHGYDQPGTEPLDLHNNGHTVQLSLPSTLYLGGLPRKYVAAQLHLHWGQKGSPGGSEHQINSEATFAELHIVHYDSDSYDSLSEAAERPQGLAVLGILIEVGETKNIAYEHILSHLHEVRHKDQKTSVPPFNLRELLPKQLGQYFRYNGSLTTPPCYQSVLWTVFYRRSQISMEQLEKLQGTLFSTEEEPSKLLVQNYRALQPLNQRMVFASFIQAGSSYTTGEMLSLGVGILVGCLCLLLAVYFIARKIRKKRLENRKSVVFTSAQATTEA
Chain of Carbonic anhydrase 6 (P23280 whole entry): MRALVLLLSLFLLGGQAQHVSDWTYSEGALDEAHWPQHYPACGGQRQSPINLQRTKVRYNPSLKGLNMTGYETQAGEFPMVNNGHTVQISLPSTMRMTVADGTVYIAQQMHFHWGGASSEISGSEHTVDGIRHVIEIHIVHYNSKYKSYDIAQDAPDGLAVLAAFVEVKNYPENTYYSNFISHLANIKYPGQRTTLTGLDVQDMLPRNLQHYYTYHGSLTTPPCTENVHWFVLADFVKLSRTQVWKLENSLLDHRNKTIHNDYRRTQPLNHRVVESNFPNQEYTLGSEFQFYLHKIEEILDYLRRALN
Chain of Carbonic anhydrase 4 (P22748 whole entry): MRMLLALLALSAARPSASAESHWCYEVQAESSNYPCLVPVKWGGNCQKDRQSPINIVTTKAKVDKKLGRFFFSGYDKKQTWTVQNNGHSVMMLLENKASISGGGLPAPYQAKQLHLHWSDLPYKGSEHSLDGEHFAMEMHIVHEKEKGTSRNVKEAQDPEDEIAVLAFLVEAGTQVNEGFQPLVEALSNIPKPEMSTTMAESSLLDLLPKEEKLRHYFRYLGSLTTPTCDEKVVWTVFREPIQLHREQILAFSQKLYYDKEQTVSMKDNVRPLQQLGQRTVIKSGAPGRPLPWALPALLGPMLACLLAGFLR

## CC1(C)O[C@@H]2[C@@H](CO[C@@]3(CNS(N)(=O)=O)OC(C)(C)O[C@@H]23)O1
[1]
  Ki: 4 mM

## NS(N)(=O)=O [SULFAMIDE]
[1]
  Ki: 1.09 mM

## CC1(C)OB(c2ccc(NS(N)(=O)=O)cc2)OC1(C)C
[2]
  Ki: 87 nM
[3]
  Ki: 994 nM
[4]
  Ki: 75 nM
[5]
  Ki: 84 nM
[6]
  Ki: 89 nM
[7]
  Ki: 7.1 nM
[1]
  Ki: 0.00877 mM
[8]
  Ki: 749 nM
[9]
  Ki: 8.62 µM
[10]
  Ki: 8.9 nM
